# According to ChEMBL document CHEMBL1201862, “PubChem BioAssay data set” (2004):
#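 Assay format: 96-well plates, 48-hour exposure. At the GI50, growth is halved.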 Activity calls are given as the source filed them. No stated cut-off is given here; in the data, active = GI50 up to about 1.1 µM and inactive = higher.
# Experiments:
# Assay in all cases: growth of human tumour cells (NCI), 48 h
# CAKI-1 = tested on: CAKI-1
# COLO 205 = tested on: COLO 205
# EKVX = tested on: EKVX
# HCC 2998 = tested on: HCC 2998
# HT-29 = tested on: HT-29
# K562 = tested on: K562
# KM12 = tested on: KM12
# M14 = tested on: M14
# NCI-H460 = tested on: NCI-H460
# NCI-H522 = tested on: NCI-H522
# OVCAR-8 = tested on: OVCAR-8
# RPMI-8226 = tested on: RPMI-8226
# SF-539 = tested on: SF-539
# SK-MEL-5 = tested on: SK-MEL-5
# SNB-75 = tested on: SNB-75
# U-251 = tested on: U-251
# OVCAR-5 = tested on: OVCAR-5
SMILES,GI50 (CAKI-1),GI50 (COLO 205),GI50 (EKVX),GI50 (HCC 2998),GI50 (HT-29),GI50 (K562),GI50 (KM12),GI50 (M14),GI50 (NCI-H460),GI50 (NCI-H522),GI50 (OVCAR-8),GI50 (RPMI-8226),GI50 (SF-539),GI50 (SK-MEL-5),GI50 (SNB-75),GI50 (U-251),GI50 (OVCAR-5)
N#Cc1c2c(c(N=P(c3ccccc3)(c3ccccc3)c3ccccc3)n3c1nc1ccccc13)CCCC2,30 µM (inactive),11.5 µM (inactive),20 µM (inactive),26.3 µM (inactive),14.7 µM (inactive),4.76 µM (inactive),17.4 µM (inactive),30.8 µM (inactive),13.3 µM (inactive),14.3 µM (inactive),13 µM (inactive),14.8 µM (inactive),45.1 µM (inactive),10.8 µM (inactive),24.5 µM (inactive),14.4 µM (inactive),
COC(=O)C1=C(C(=O)OC)C23CC4CCC2(C(=O)C1O3)C4(C)C (stereo not drawn),> 100 µM (inactive),> 100 µM (inactive),,> 100 µM (inactive),> 100 µM (inactive),56.2 µM (inactive),> 100 µM (inactive),> 100 µM (inactive),> 100 µM (inactive),22 µM (inactive),> 100 µM (inactive),34.1 µM (inactive),> 100 µM (inactive),> 100 µM (inactive),53.8 µM (inactive),> 100 µM (inactive),> 100 µM (inactive)
COC(=O)N/N=C(\Cc1ccccc1)CN(C)C,,> 100 µM (inactive),> 100 µM (inactive),> 100 µM (inactive),> 100 µM (inactive),> 100 µM (inactive),> 100 µM (inactive),> 100 µM (inactive),> 100 µM (inactive),> 100 µM (inactive),> 100 µM (inactive),> 100 µM (inactive),> 100 µM (inactive),> 100 µM (inactive),> 100 µM (inactive),> 100 µM (inactive),> 100 µM (inactive)
O=c1cc2n(c(=O)[nH]1)C1OC(C(O)C1O)[C@@H]2CCO (stereo partly drawn),> 100 µM (inactive),,> 100 µM (inactive),,> 100 µM (inactive),> 100 µM (inactive),> 100 µM (inactive),> 100 µM (inactive),> 100 µM (inactive),> 100 µM (inactive),> 100 µM (inactive),,> 100 µM (inactive),> 100 µM (inactive),,> 100 µM (inactive),> 100 µM (inactive)
CCSC1=C(C)N(/C=N/C(C)(C)C)CC1,> 100 µM (inactive),> 100 µM (inactive),> 100 µM (inactive),> 100 µM (inactive),> 100 µM (inactive),> 100 µM (inactive),> 100 µM (inactive),> 100 µM (inactive),> 100 µM (inactive),> 100 µM (inactive),> 100 µM (inactive),,> 100 µM (inactive),> 100 µM (inactive),> 100 µM (inactive),> 100 µM (inactive),> 100 µM (inactive)
CC(C)(C)CC(C)(C)c1cc2c(O)c(c1)Cc1cc(C(C)(C)CC(C)(C)C)cc(c1O)Cc1cc(C(C)(C)CC(C)(C)C)cc(c1O)Cc1cc(C(C)(C)CC(C)(C)C)cc(c1O)Cc1cc(C(C)(C)CC(C)(C)C)cc(c1O)Cc1cc(C(C)(C)CC(C)(C)C)cc(c1O)C2,,> 100 µM (inactive),> 100 µM (inactive),> 100 µM (inactive),> 100 µM (inactive),> 100 µM (inactive),> 100 µM (inactive),> 100 µM (inactive),> 100 µM (inactive),> 100 µM (inactive),> 100 µM (inactive),> 100 µM (inactive),> 100 µM (inactive),> 100 µM (inactive),> 100 µM (inactive),> 100 µM (inactive),> 100 µM (inactive)
C[C@]12CC[C@H](O)CC1=CC[C@@H]1C2CC[C@]2(C)Nc3c(cnn3-c3ccccc3)CC12 (stereo partly drawn),2.96 µM (inactive),,6.07 µM (inactive),3.56 µM (inactive),1.89 µM (inactive),2.61 µM (inactive),2.05 µM (inactive),6.34 µM (inactive),2.72 µM (inactive),,6.87 µM (inactive),0.361 µM (active),0.9 µM (active),3.24 µM (inactive),1 µM (active),2.36 µM (inactive),3.96 µM (inactive)
CN(C)CC/C(=N\Nc1ccc([N+](=O)[O-])cc1)c1ccccc1,,14.9 µM (inactive),14.3 µM (inactive),,9.23 µM (inactive),3.48 µM (inactive),9.31 µM (inactive),13.9 µM (inactive),9.48 µM (inactive),13.9 µM (inactive),14 µM (inactive),11 µM (inactive),7.28 µM (inactive),14.5 µM (inactive),4.5 µM (inactive),12.4 µM (inactive),15 µM (inactive)
O=C(Nc1ccccc1)N1C(c2ccccc2)=N[C@@H](c2ccccc2)[C@@H]1c1ccccc1,21.5 µM (inactive),14.6 µM (inactive),43.7 µM (inactive),18.5 µM (inactive),16.6 µM (inactive),17.7 µM (inactive),18.3 µM (inactive),14.6 µM (inactive),31.4 µM (inactive),,22.8 µM (inactive),22.5 µM (inactive),18.6 µM (inactive),13.6 µM (inactive),22.1 µM (inactive),,19.3 µM (inactive)
O=S1(=O)c2ccccc2Oc2ccc(C(/C=N/O)=N/O)cc21,16.5 µM (inactive),> 100 µM (inactive),7.71 µM (inactive),,63.8 µM (inactive),30.1 µM (inactive),22 µM (inactive),37.3 µM (inactive),27.9 µM (inactive),12.1 µM (inactive),18.4 µM (inactive),19.1 µM (inactive),26 µM (inactive),,45.3 µM (inactive),41.2 µM (inactive),> 100 µM (inactive)
COC(=O)C1CC2(CC3=C1CCCC3)OCCO2 (stereo not drawn),> 100 µM (inactive),> 100 µM (inactive),> 100 µM (inactive),> 100 µM (inactive),> 100 µM (inactive),> 100 µM (inactive),> 100 µM (inactive),> 100 µM (inactive),> 100 µM (inactive),> 100 µM (inactive),> 100 µM (inactive),> 100 µM (inactive),> 100 µM (inactive),> 100 µM (inactive),> 100 µM (inactive),> 100 µM (inactive),
On1c(-c2ccccc2)c(-c2c(-c3ccccc3)n(O)c3ccccc23)c2ccccc21,,,,,45.7 µM (inactive),36.6 µM (inactive),30.8 µM (inactive),,23.4 µM (inactive),22.8 µM (inactive),26.1 µM (inactive),,24.8 µM (inactive),21.9 µM (inactive),27.5 µM (inactive),35.5 µM (inactive),
CCOC(=O)c1ccc(N2C(=O)/C(=C\OC)c3ccccc3C2=O)cc1,33.4 µM (inactive),94.4 µM (inactive),> 100 µM (inactive),46.2 µM (inactive),44.3 µM (inactive),34.2 µM (inactive),42.6 µM (inactive),,,29 µM (inactive),20 µM (inactive),27.8 µM (inactive),32.4 µM (inactive),70.8 µM (inactive),25.5 µM (inactive),22.7 µM (inactive),43.1 µM (inactive)
COC1=C(OC)C(=O)c2cc(SC)c(=O)c(SC)cc2C1=O,72.4 µM (inactive),> 100 µM (inactive),21.2 µM (inactive),> 100 µM (inactive),> 100 µM (inactive),15.9 µM (inactive),96.4 µM (inactive),17.2 µM (inactive),45.5 µM (inactive),17.1 µM (inactive),12.1 µM (inactive),15.2 µM (inactive),12.1 µM (inactive),12.4 µM (inactive),13.6 µM (inactive),17.9 µM (inactive),
CCOC(=O)C1=C(c2ccccc2)N(C(C)=O)Cc2ccccc21,,15.9 µM (inactive),29.6 µM (inactive),24.7 µM (inactive),16.3 µM (inactive),14.5 µM (inactive),15 µM (inactive),18.5 µM (inactive),14.3 µM (inactive),16.9 µM (inactive),21.3 µM (inactive),13.5 µM (inactive),16.3 µM (inactive),12.6 µM (inactive),18.6 µM (inactive),17.2 µM (inactive),21.7 µM (inactive)
O[C@]12c3ccccc3C1CCCCC2N1CCOCC1 (stereo partly drawn),,> 100 µM (inactive),> 100 µM (inactive),,> 100 µM (inactive),> 100 µM (inactive),> 100 µM (inactive),> 100 µM (inactive),> 100 µM (inactive),> 100 µM (inactive),> 100 µM (inactive),> 100 µM (inactive),,> 100 µM (inactive),> 100 µM (inactive),> 100 µM (inactive),
CCCCCC/C=C/CCCCCCCc1cccc(O)c1C(=O)O,> 100 µM (inactive),> 100 µM (inactive),32.7 µM (inactive),,14.4 µM (inactive),37.2 µM (inactive),> 100 µM (inactive),> 100 µM (inactive),9.75 µM (inactive),52.8 µM (inactive),50.8 µM (inactive),54.2 µM (inactive),59.4 µM (inactive),,> 100 µM (inactive),27.3 µM (inactive),> 100 µM (inactive)
O=P(Oc1ccc2ccccc2c1)(N1CC1)N1CC1,,55.6 µM (inactive),13.6 µM (inactive),88.1 µM (inactive),> 100 µM (inactive),37.2 µM (inactive),> 100 µM (inactive),11.4 µM (inactive),8.99 µM (inactive),11 µM (inactive),59.2 µM (inactive),> 100 µM (inactive),17.6 µM (inactive),,,27.6 µM (inactive),34 µM (inactive)
